Measurements reported in PubChem BioAssay AID328 (DTP/NCI, 2004).
Where “and” joins values, the source holds several entries; their conditions need not be identical. Identical values can stand only once. Toxic doses and inconclusive results are not listed.

System: BDF1 mice, P388 leukemia ip, median survival T/C
Test: NCI In Vivo Anticancer Drug Screen. Data for tumor model P388 Leukemia (intraperitoneal) in B6D2F1 (BDF1) mice
Settings: endpoint: median survival time, higher = longer survival
In short: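 Transplantable tumour in mice; compound vs vehicle dosing; survival scored; ratio of treated to control reported.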

[1] = dose: 12.5 mg/kg/injection, schedule: Q01DX009 (ip), vehicle: Klucel (hydroxypropylcellulose) (HPC)
[2] = dose: 25.0 mg/kg/injection, schedule: Q01DX009 (ip), vehicle: Klucel (hydroxypropylcellulose) (HPC)
[3] = dose: 50.0 mg/kg/injection, schedule: Q01DX009 (ip), vehicle: Klucel (hydroxypropylcellulose) (HPC)
[4] = dose: 100.0 mg/kg/injection, schedule: Q01DX009 (ip), vehicle: Klucel (hydroxypropylcellulose) (HPC)
[5] = dose: 50.0 mg/kg/injection, schedule: Q01DX009 (ip), vehicle: saline with Tween-80
[6] = dose: 100.0 mg/kg/injection, schedule: Q01DX009 (ip), vehicle: saline with Tween-80
[7] = dose: 100.0 mg/kg/injection, schedule: Q04DX003 (ip), vehicle: saline sonified
[8] = dose: 200.0 mg/kg/injection, schedule: Q04DX003 (ip), vehicle: saline sonified
[9] = dose: 100.0 mg/kg/injection, schedule: Q04DX003 (ip), vehicle: saline with Tween-80
[10] = dose: 200.0 mg/kg/injection, schedule: Q04DX003 (ip), vehicle: saline with Tween-80
[11] = dose: 400.0 mg/kg/injection, schedule: Q04DX003 (ip), vehicle: saline with Tween-80
[12] = dose: 200.0 mg/kg/injection, schedule: Q01DX009 (ip), vehicle: saline with Tween-80
[13] = dose: 100.0 mg/kg/injection, schedule: Q04DX003 (ip), vehicle: Klucel (hydroxypropylcellulose) (HPC)
[14] = dose: 200.0 mg/kg/injection, schedule: Q04DX003 (ip), vehicle: Klucel (hydroxypropylcellulose) (HPC)
[15] = dose: 400.0 mg/kg/injection, schedule: Q04DX003 (ip), vehicle: Klucel (hydroxypropylcellulose) (HPC)
[16] = dose: 75.0 mg/kg/injection, schedule: Q01DX009 (ip), vehicle: Klucel (hydroxypropylcellulose) (HPC)

Compound: Cc1c(Br)c(=O)n(-c2ccccc2)n1C
- T/C [1]: 106 % of control
- T/C [2]: 98 % of control
- T/C [3]: 100 % of control and 106 % of control
- T/C [4]: 106 % of control

Compound: COc1ccc(S(=O)(=O)c2ccccc2)c2nonc12
- T/C (dose: 25.0 mg/kg/injection, schedule: Q01DX009 (ip), vehicle: saline with Tween-80): 90 % of control
- T/C [5]: 86 % of control
- T/C [6]: 92 % of control

Compound: COc1ccc2c(c1)CCC(CC(C)=O)C2=O (stereo not drawn)
- T/C [7]: 104 % of control
- T/C [8]: 104 % of control
- T/C (dose: 400.0 mg/kg/injection, schedule: Q04DX003 (ip), vehicle: saline sonified): 104 % of control

Compound: CC1(C)OC2C(CO)OC(n3cnc4c(N)ncnc43)C2O1 (stereo not drawn)
- T/C (dose: 75.0 mg/kg/injection, schedule: Q04DX003 (ip), vehicle: Klucel (hydroxypropylcellulose) (HPC)): 100 % of control
- T/C (dose: 300.0 mg/kg/injection, schedule: Q04DX003 (ip), vehicle: Klucel (hydroxypropylcellulose) (HPC)): 100 % of control

Compound: c1ccc2c(NCCCCCCNc3c4ccccc4nc4ccccc34)c3ccccc3nc2c1
- T/C (dose: 0.31 mg/kg/injection, schedule: Q01DX009 (ip), vehicle: lactic acid): 110 % of control
- T/C (dose: 0.62 mg/kg/injection, schedule: Q01DX009 (ip), vehicle: lactic acid): 123 % of control
- T/C (dose: 1.25 mg/kg/injection, schedule: Q01DX009 (ip), vehicle: lactic acid): 163 % of control
- T/C (dose: 2.5 mg/kg/injection, schedule: Q01DX009 (ip), vehicle: lactic acid): 180 % of control
- T/C (dose: 5.0 mg/kg/injection, schedule: Q01DX009 (ip), vehicle: lactic acid): 178 % of control

Compound: CC([OH2+])CNCCN.CC([OH2+])CNCCN.O=S(=O)([O-])[O-].[Cu+2] (stereo not drawn)
- T/C (dose: 6.25 mg/kg/injection, schedule: Q01DX009 (ip), vehicle: saline): 101 % of control
- T/C (dose: 12.5 mg/kg/injection, schedule: Q01DX009 (ip), vehicle: saline): 91 % of control
- T/C (dose: 25.0 mg/kg/injection, schedule: Q01DX009 (ip), vehicle: saline): 94 % of control

Compound: O=[N+]([O-])c1cccc2c1CCCC2
- T/C [9]: 110 % of control
- T/C [10]: 110 % of control
- T/C [11]: 120 % of control

Compound: O=C(NC1=NN(c2ccccc2)C(=O)C1)C(Cl)c1ccccc1 (stereo not drawn)
- T/C [5]: 104 % of control
- T/C [6]: 95 % of control
- T/C [12]: 95 % of control

Compound: Cn1cnc([N+](=O)[O-])c1Sc1nc(N)nc2c1ncn2C1OC(CO)C(O)C1O (stereo not drawn)
- T/C (dose: 7.0 mg/kg/injection, schedule: Q04DX003 (ip), vehicle: saline): 163 % of control
- T/C (dose: 7.03 mg/kg/injection, schedule: Q01DX009 (ip), vehicle: saline): 120 % of control
- T/C (dose: 9.2 mg/kg/injection, schedule: Q01DX009 (ip), vehicle: saline): 163 % of control
- T/C (dose: 14.06 mg/kg/injection, schedule: Q01DX009 (ip), vehicle: saline): 163 % of control
- T/C (dose: 16.0 mg/kg/injection, schedule: Q04DX003 (ip), vehicle: saline): 168 % of control and 172 % of control
- T/C (dose: 21.0 mg/kg/injection, schedule: Q01DX009 (ip), vehicle: saline): 95 % of control
- T/C (dose: 25.0 mg/kg/injection, schedule: Q04DX003 (ip), vehicle: saline): 161 % of control and 168 % of control
- T/C (dose: 56.25 mg/kg/injection, schedule: Q01DX009 (ip), vehicle: saline): 100 % of control
- T/C (dose: 150.0 mg/kg/injection, schedule: Q04DX003 (ip), vehicle: saline): 104 % of control and 113 % of control
- T/C (dose: 225.0 mg/kg/injection, schedule: Q04DX003 (ip), vehicle: saline): 109 % of control
- T/C (dose: 335.0 mg/kg/injection, schedule: Q04DX003 (ip), vehicle: saline): 109 % of control

Compound: CC(=O)O[C@H]1CC[C@@]2(C)C(=CC[C@H]3[C@@H]4CC[C@H](O)[C@@]4(C)CC[C@@H]32)C1
- T/C [13]: 104 % of control
- T/C [14]: 100 % of control
- T/C [15]: 90 % of control

Compound: O=C(Nc1ccc(Nc2ccncc2)cc1)c1ccc([N+](=O)[O-])cc1
- T/C [13]: 90 % of control
- T/C [14]: 90 % of control
- T/C [15]: 118 % of control

Compound: O=S(=O)(OCC#CCOS(=O)(=O)c1ccc(Cl)c(Cl)c1)c1ccc(Cl)c(Cl)c1
- T/C [1]: 99 % of control
- T/C [2]: 112 % of control
- T/C (dose: 35.0 mg/kg/injection, schedule: Q01DX009 (ip), vehicle: Klucel (hydroxypropylcellulose) (HPC)): 93 % of control
- T/C [3]: 87 % of control
- T/C [16]: 101 % of control

Compound: C=C(C)C1CCC2(C=O)CCC3(C)C(CCC4C5(C)CCC(O)C(C)(C)C5CCC43C)C12 (stereo not drawn)
- T/C (dose: 18.75 mg/kg/injection, schedule: Q01DX009 (ip), vehicle: Klucel (hydroxypropylcellulose) (HPC)): 91 % of control
- T/C (dose: 37.5 mg/kg/injection, schedule: Q01DX009 (ip), vehicle: Klucel (hydroxypropylcellulose) (HPC)): 88 % of control
- T/C [16]: 95 % of control

Compound: CC1(c2ccc(N(CCCl)CCCl)cc2)NC(=O)NC1=O (stereo not drawn)
- T/C (dose: 6.25 mg/kg/injection, schedule: Q01DX009 (ip), vehicle: Klucel (hydroxypropylcellulose) (HPC)): 121 % of control
- T/C [1]: 122 % of control
- T/C [2]: 191 % of control
- T/C [4]: 260 % of control

Compound: Fc1nc2nc(C(F)(F)F)[nH]c2nc1F
- T/C (dose: 10.0 mg/kg/injection, schedule: Q01DX009 (ip), vehicle: saline with Tween-80): 104 % of control
- T/C (dose: 20.0 mg/kg/injection, schedule: Q01DX009 (ip), vehicle: saline with Tween-80): 121 % of control
- T/C (dose: 25.0 mg/kg/injection, schedule: Q04DX003 (ip), vehicle: saline with Tween-80): 105 % of control
- T/C (dose: 40.0 mg/kg/injection, schedule: Q01DX009 (ip), vehicle: saline with Tween-80): 120 % of control
- T/C (dose: 50.0 mg/kg/injection, schedule: Q04DX003 (ip), vehicle: saline with Tween-80): 99 % of control
- T/C (dose: 80.0 mg/kg/injection, schedule: Q01DX009 (ip), vehicle: saline with Tween-80): 112 % of control
- T/C [9]: 90 % of control and 105 % of control
- T/C (dose: 160.0 mg/kg/injection, schedule: Q01DX009 (ip), vehicle: saline with Tween-80): 112 % of control

Compound: CCOC(=O)C(COS(=O)(=O)c1ccc(C)cc1)(COS(=O)(=O)c1ccc(C)cc1)C(=O)OCC
- T/C [4]: 108 % of control
- T/C [13]: 100 % of control
- T/C (dose: 200.0 mg/kg/injection, schedule: Q01DX009 (ip), vehicle: Klucel (hydroxypropylcellulose) (HPC)): 104 % of control
- T/C [14]: 104 % of control
- T/C (dose: 400.0 mg/kg/injection, schedule: Q01DX009 (ip), vehicle: Klucel (hydroxypropylcellulose) (HPC)): 100 % of control
- T/C [15]: 100 % of control

Compound: CC1CN1CCS(=O)(=O)CCN1CC1C (stereo not drawn)
- T/C (dose: 22.0 mg/kg/injection, schedule: Q04DX003 (ip), vehicle: saline): 105 % of control
- T/C (dose: 33.0 mg/kg/injection, schedule: Q04DX003 (ip), vehicle: saline): 100 % of control
- T/C (dose: 50.0 mg/kg/injection, schedule: Q04DX003 (ip), vehicle: saline): 111 % of control
- T/C (dose: 75.0 mg/kg/injection, schedule: Q04DX003 (ip), vehicle: saline): 122 % of control
- T/C (dose: 150.0 mg/kg/injection, schedule: Q01DX009 (ip), vehicle: other): 163 % of control
- T/C (dose: 225.0 mg/kg/injection, schedule: Q01DX009 (ip), vehicle: other): 209 % of control

Compound: O=C(O)C1C(C(=O)O)N2C(c3ccccc3)C(C(=O)O)C(C(=O)O)N2C1c1ccccc1 (stereo not drawn)
- T/C [5]: 90 % of control
- T/C [6]: 90 % of control
- T/C [12]: 90 % of control

Compound: CC(=O)N(O)CCCCCNC(=O)CCC(=O)N(O)CCCCCNC(=O)CCC(=O)N(O)CCCCCN
- T/C [5]: 101 % of control
- T/C [6]: 102 % of control

Compound: O=C(c1ccccc1)C1(Br)CCC1
- T/C (dose: 100.0 mg/kg/injection, schedule: Q01DX009 (ip), vehicle: saline sonified): 91 % of control
- T/C (dose: 200.0 mg/kg/injection, schedule: Q01DX009 (ip), vehicle: saline sonified): 100 % of control
- T/C (dose: 400.0 mg/kg/injection, schedule: Q01DX009 (ip), vehicle: saline sonified): 95 % of control

Compound: CSC1C(=O)Nc2ccc(Cl)cc21 (stereo not drawn)
- T/C [9]: 97 % of control and 108 % of control
- T/C [10]: 98 % of control and 99 % of control
- T/C [11]: 99 % of control and 110 % of control
- T/C (dose: 600.0 mg/kg/injection, schedule: Q04DX003 (ip), vehicle: saline with Tween-80): 92 % of control

Compound: O=[N+]([O-])c1cccc(N2CN(c3cccc([N+](=O)[O-])c3)CN(c3cccc([N+](=O)[O-])c3)C2)c1
- T/C [5]: 116 % of control
- T/C [6]: 106 % of control
- T/C [12]: 100 % of control

Compound: COc1ccc(C(=O)NN2C(N)=NC(N)=NC2(C)C)cc1
- T/C (dose: 50.0 mg/kg/injection, schedule: Q04DX003 (ip), vehicle: saline sonified): 100 % of control
- T/C [7]: 100 % of control
- T/C [8]: 105 % of control
